Test results published in the NIST ThermoML archive (doi:10.1021/acs.jced.9b00442).

Legend:
[1] = refractive index (Na D-line) (dimensionless); conditions: 100 kPa, Liquid, Standard Abbe refractometry
[2] = 100 kPa, Liquid; for electrical conductivity: Frequency=0.0006 MHz, Alternating current cell with electrodes; for viscosity: Concentric cylinders viscometry; for mass density: Vibrating tube method

CCCC[N+](C)(C)CC.O=S(=O)([N-]S(=O)(=O)C(F)(F)F)C(F)(F)F
Conditions	electrical conductivity [S/m]	mass density [kg/m3]	refractive index	viscosity [mPa·s]
[1], 283.15 K	–	–	1.4174	–
[1], 288.15 K	–	–	1.416	–
[1], 293.15 K	–	–	1.4147	–
[1], 298.15 K	–	–	1.4133	–
[1], 303.15 K	–	–	1.412	–
[1], 308.15 K	–	–	1.4106	–
[1], 313.15 K	–	–	1.4092	–
[1], 318.15 K	–	–	1.4078	–
[1], 323.15 K	–	–	1.4064	–
[1], 328.15 K	–	–	1.4051	–
[1], 333.15 K	–	–	1.4038	–
[1], 338.15 K	–	–	1.4024	–
[1], 343.15 K	–	–	1.4012	–
[1], 348.15 K	–	–	1.3998	–
[1], 353.15 K	–	–	1.3985	–
[1], 358.15 K	–	–	1.3973	–
[2], 283.15 K	0.082	–	–	–
[2], 288.15 K	0.11	1380.6	–	176.1
[2], 289.15 K	–	1379.7	–	–
[2], 290.15 K	–	1378.8	–	–
[2], 291.15 K	–	1377.9	–	–
[2], 292.15 K	–	1377	–	–
[2], 293.15 K	0.143	1376.1	–	132.4
[2], 294.15 K	–	1375.2	–	–
[2], 295.15 K	–	1374.3	–	–
[2], 296.15 K	–	1373.4	–	–
[2], 297.15 K	–	1372.5	–	–
[2], 298.15 K	0.182	1371.6	–	100.5
[2], 299.16 K	–	1370.8	–	–
[2], 300.16 K	–	1369.9	–	–
[2], 301.15 K	–	1369	–	–
[2], 302.15 K	–	1368.1	–	–
[2], 303.15 K	0.228	1367.2	–	78.4
[2], 304.15 K	–	1366.3	–	–
[2], 305.15 K	–	1365.4	–	–
[2], 306.15 K	–	1364.6	–	–
[2], 307.15 K	–	1363.7	–	–
[2], 308.15 K	0.279	1362.8	–	62.3
[2], 309.15 K	–	1361.9	–	–
[2], 310.15 K	–	1361.1	–	–
[2], 311.15 K	–	1360.2	–	–
[2], 312.15 K	–	1359.3	–	–
[2], 313.15 K	0.337	1358.4	–	50.9
[2], 314.15 K	–	1357.6	–	–
[2], 315.15 K	–	1356.7	–	–
[2], 316.15 K	–	1355.8	–	–
[2], 317.15 K	–	1355	–	–
[2], 318.15 K	0.401	1354.1	–	41.2
[2], 319.15 K	–	1353.2	–	–
[2], 320.15 K	–	1352.3	–	–
[2], 321.15 K	–	1351.5	–	–
[2], 322.15 K	–	1350.6	–	–
[2], 323.15 K	0.473	1349.7	–	34.2
[2], 324.15 K	–	1348.9	–	–
[2], 325.15 K	–	1348	–	–
[2], 326.15 K	–	1347.2	–	–
[2], 327.15 K	–	1346.3	–	–
[2], 328.15 K	–	1345.5	–	28.8
[2], 329.15 K	–	1344.6	–	–
[2], 330.15 K	–	1343.7	–	–
[2], 331.15 K	–	1342.9	–	–
[2], 332.15 K	–	1342	–	–
[2], 333.15 K	–	1341.2	–	24.8
[2], 334.15 K	–	1340.3	–	–
[2], 335.16 K	–	1339.5	–	–
[2], 336.15 K	–	1338.6	–	–
[2], 337.15 K	–	1337.8	–	–
[2], 338.15 K	–	1336.9	–	21
[2], 339.15 K	–	1336	–	–
[2], 340.15 K	–	1335.2	–	–
[2], 341.15 K	–	1334.3	–	–
[2], 342.15 K	–	1333.5	–	–
[2], 343.15 K	–	1332.6	–	18.2
[2], 344.15 K	–	1331.8	–	–
[2], 345.15 K	–	1330.9	–	–
[2], 346.15 K	–	1330.1	–	–
[2], 347.15 K	–	1329.2	–	–
[2], 348.15 K	–	1328.4	–	15.9
[2], 349.15 K	–	1327.5	–	–
[2], 350.15 K	–	1326.7	–	–
[2], 351.15 K	–	1325.9	–	–
[2], 352.15 K	–	1325	–	–
[2], 353.15 K	–	1324.2	–	14.2
[2], 354.15 K	–	1323.3	–	–
[2], 355.15 K	–	1322.5	–	–
[2], 356.15 K	–	1321.6	–	–
[2], 357.15 K	–	1320.8	–	–
[2], 358.15 K	–	1319.9	–	12.4
[2], 359.15 K	–	1319.1	–	–
[2], 360.15 K	–	1318.3	–	–
[2], 361.15 K	–	1317.4	–	–
[2], 362.16 K	–	1316.6	–	–
[2], 363.15 K	–	1315.7	–	11

CC[N+](C)(CCO)CCO.O=S(=O)([N-]S(=O)(=O)C(F)(F)F)C(F)(F)F
[2]
Conditions	electrical conductivity [S/m]	mass density [kg/m3]	viscosity [mPa·s]
283.15 K	0.027	–	–
288.15 K	0.04	1524.5	536.2
289.15 K	–	1523.6	–
290.15 K	–	1522.7	–
291.15 K	–	1521.7	–
292.15 K	–	1520.8	–
293.15 K	0.056	1519.9	–
294.15 K	–	1519	–
295.15 K	–	1518	–
296.15 K	–	1517.1	–
297.15 K	–	1516.2	–
298.15 K	0.076	1515.3	268.3
299.16 K	–	1514.4	–
300.16 K	–	1513.4	–
301.15 K	–	1512.5	–
302.15 K	–	1511.6	–
303.15 K	0.101	1510.7	197.7
304.15 K	–	1509.8	–
305.15 K	–	1508.9	–
306.15 K	–	1508	–
307.15 K	–	1507.1	–
308.15 K	0.13	1506.2	149
309.15 K	–	1505.3	–
310.15 K	–	1504.4	–
311.15 K	–	1503.5	–
312.15 K	–	1502.6	–
313.15 K	0.165	1501.7	112.6
314.15 K	–	1500.8	–
315.15 K	–	1499.9	–
316.15 K	–	1499	–
317.15 K	–	1498.1	–
318.15 K	0.206	1497.2	89.9
319.15 K	–	1496.3	–
320.15 K	–	1495.4	–
321.15 K	–	1494.6	–
322.15 K	–	1493.7	–
323.15 K	0.253	1492.8	71.7
324.15 K	–	1491.9	–
325.15 K	–	1491	–
326.15 K	–	1490.2	–
327.15 K	–	1489.3	–
328.15 K	–	1488.4	58.1
329.15 K	–	1487.5	–
330.15 K	–	1486.7	–
331.15 K	–	1485.8	–
332.15 K	–	1484.9	–
333.15 K	–	1484.1	47.3
334.15 K	–	1483.2	–
335.16 K	–	1482.3	–
336.15 K	–	1481.5	–
337.15 K	–	1480.6	–
338.15 K	–	1479.7	39.7
339.15 K	–	1478.9	–
340.15 K	–	1478	–
341.15 K	–	1477.1	–
342.15 K	–	1476.3	–
343.15 K	–	1475.4	33.4
344.15 K	–	1474.6	–
345.15 K	–	1473.7	–
346.15 K	–	1472.8	–
347.15 K	–	1472	–
348.15 K	–	1471.1	28.4
349.15 K	–	1470.3	–
350.15 K	–	1469.4	–
351.15 K	–	1468.6	–
352.15 K	–	1467.7	–
353.15 K	–	1466.8	24.3
354.15 K	–	1466	–
355.15 K	–	1465.1	–
356.15 K	–	1464.3	–
357.15 K	–	1463.5	–
358.15 K	–	1462.6	21.1
359.15 K	–	1461.8	–
360.15 K	–	1460.9	–
361.15 K	–	1460.1	–
362.16 K	–	1459.2	–
363.15 K	–	1458.4	18.4
